Where “and” joins values, the source holds several entries; their conditions need not be identical. Equal entries are not always repeated. Numbers after ± are expanded uncertainties.
Experiments:
[1] = xn = mol fraction of the nth substance listed; conditions: 101.3 kPa, Liquid, Vibrating tube method
[2] = 101.3 kPa, Liquid, Vibrating tube method

C1COCCO1 [1,4-dioxane] + CCCO
mass density, [1]
Conditions | 288.15 K | 298.15 K | 308.15 K | 318.15 K
x1 = 0.05 | 820.78 ± 0.85 kg/m3 | 812.62 ± 0.84 kg/m3 | 804.33 ± 0.83 kg/m3 | 795.88 ± 0.82 kg/m3
x1 = 0.15 | 846.12 ± 0.87 kg/m3 | 837.54 ± 0.86 kg/m3 | 828.82 ± 0.85 kg/m3 | 819.95 ± 0.84 kg/m3
x1 = 0.249 | 870.65 ± 0.89 kg/m3 | 861.62 ± 0.88 kg/m3 | 852.49 ± 0.87 kg/m3 | 843.22 ± 0.86 kg/m3
x1 = 0.35 | 894.72 ± 0.91 kg/m3 and 894.75 ± 0.91 kg/m3 | 885.38 ± 0.9 kg/m3 and 885.41 ± 0.9 kg/m3 | 875.91 ± 0.9 kg/m3 and 875.94 ± 0.9 kg/m3 | 866.3 ± 0.89 kg/m3 and 866.33 ± 0.89 kg/m3
x1 = 0.45 | 918.23 ± 0.94 kg/m3 | 908.54 ± 0.93 kg/m3 | 898.73 ± 0.92 kg/m3 | 888.78 ± 0.91 kg/m3
x1 = 0.496 | 928.74 ± 0.95 kg/m3 | 918.89 ± 0.94 kg/m3 | 908.94 ± 0.93 kg/m3 | 898.85 ± 0.92 kg/m3
x1 = 0.55 | 941.07 ± 0.96 kg/m3 and 941.11 ± 0.96 kg/m3 | 931.06 ± 0.95 kg/m3 and 931.09 ± 0.95 kg/m3 | 920.95 ± 0.94 kg/m3 and 920.97 ± 0.94 kg/m3 | 910.71 ± 0.93 kg/m3 and 910.73 ± 0.93 kg/m3
x1 = 0.65 | 963.51 ± 0.97 kg/m3 | 953.2 ± 0.96 kg/m3 | 942.79 ± 0.95 kg/m3 | 932.28 ± 0.94 kg/m3
x1 = 0.75 | 985.54 ± 0.99 kg/m3 and 985.58 ± 0.99 kg/m3 | 974.94 ± 0.98 kg/m3 and 974.98 ± 0.98 kg/m3 | 964.26 ± 0.97 kg/m3 and 964.29 ± 0.97 kg/m3 | 953.5 ± 0.96 kg/m3 and 953.51 ± 0.96 kg/m3
x1 = 0.849 | 1006.97 ± 1 kg/m3 | 996.12 ± 1 kg/m3 | 985.2 ± 0.99 kg/m3 | 974.19 ± 0.98 kg/m3
x1 = 0.948 | 1028.13 ± 1 kg/m3 | 1017.05 ± 1 kg/m3 | 1005.9 ± 1 kg/m3 | 994.68 ± 1 kg/m3
x1 = 0.95 | 1028.45 ± 1 kg/m3 | 1017.36 ± 1 kg/m3 | 1006.21 ± 1 kg/m3 | 995 ± 1 kg/m3
x1 = 1 | 1039.12 ± 1 kg/m3 | 1027.84 ± 1 kg/m3 | 1016.57 ± 1 kg/m3 | 1005.29 ± 1 kg/m3

C1COCCO1 [1,4-dioxane] + ClCCCl
[1], x1 = 1
Conditions | mass density [kg/m3]
288.15 K | 1039.12 ± 1
298.15 K | 1027.84 ± 1
308.15 K | 1016.57 ± 1
318.15 K | 1005.29 ± 1

CCCO [propan-1-ol]
[2]
Conditions | mass density [kg/m3]
288.15 K | 807.86 ± 0.84
298.15 K | 799.78 ± 0.83
308.15 K | 791.71 ± 0.82
318.15 K | 783.64 ± 0.81

CCCO [propan-1-ol] + C1COCCO1
[1], x2 = 0
Conditions | mass density [kg/m3]
288.15 K | 807.86 ± 0.84
298.15 K | 799.78 ± 0.83
308.15 K | 791.71 ± 0.82
318.15 K | 783.64 ± 0.81

CCCO [propan-1-ol] + ClCCCl
[1], x1 = 1
Conditions | mass density [kg/m3]
288.15 K | 807.86 ± 0.84
298.15 K | 799.78 ± 0.83
308.15 K | 791.71 ± 0.82
318.15 K | 783.64 ± 0.81

CC(C)O [propan-2-ol]
[2]
Conditions | mass density [kg/m3]
288.15 K | 789.68 ± 0.8
298.15 K | 781.08 ± 0.79
308.15 K | 772.48 ± 0.78
318.15 K | 763.88 ± 0.77

CC(C)O [propan-2-ol] + C1COCCO1
[1], x2 = 0
Conditions | mass density [kg/m3]
288.15 K | 789.68 ± 0.8
298.15 K | 781.08 ± 0.79
308.15 K | 772.48 ± 0.78
318.15 K | 763.88 ± 0.77

CC(C)O [propan-2-ol] + ClCCCl
[1], x1 = 1
Conditions | mass density [kg/m3]
288.15 K | 789.68 ± 0.8
298.15 K | 781.08 ± 0.79
308.15 K | 772.48 ± 0.78
318.15 K | 763.88 ± 0.77

Reference: the NIST ThermoML archive (doi:10.1021/acs.jced.8b00067)
